The values that follow are results of earlier work, collected in patent US20040259850A1, “Method for treating or preventing symptoms of hormonal variation including hot flashes” (priority 2001, published 2004).

For series [1] the following is noted: as stated in the background; cited from earlier work.
Series [2] relates to hot flashes in patients. To be noted: cited from earlier work; for amelioration of hot flashes, general statement: comparison of clonidine with estrogen.

With `COc1ccc(C(CN(C)C)C2(O)CCCCC2)cc1` (centres unmarked) [venlafaxine], the side effects entry in series [1] is “mouth dryness, decreased appetite, nausea and constipation”. The “effect on hot flashes” value in series [2] (early studies, survivors of breast cancer (Loprinzi et al. 2000)) was “effective non-hormonal method to diminish hot flashes”.
Consider `CN1CCN2c3ncccc3Cc3ccccc3C2C1` (centres unmarked) [Mirtazapine], for which the “effect on hot flushes and perspiration bouts” value in series [2] (four case reports (Waldinger et al. 2000)) is “appears to have an ameliorating effect”.
On to `Clc1cccc(Cl)c1N=C1NCCN1` [clonidine], for which the “amelioration of hot flashes, general statement” value in series [2] is recorded as “only mildly ameliorates hot flashes”. Moreover, in series [2] (transdermal, tamoxifen-treated women (Goldberg et al. 1994)), the “effect on frequency and severity of hot flashes” value is “only a moderate effect”.
For the molecule estrogen, the “amelioration of hot flashes, general statement” value in series [2] is “can virtually eliminate them”.
As to `CC(=O)O[C@]1(C(C)=O)CC[C@H]2[C@@H]3C=C(C)C4=CC(=O)CC[C@]4(C)[C@H]3CC[C@@]21C` [megestrol acetate], in series [1], the side effects result is “chronic adrenal insufficiency can be a side effect”. The “effect on frequency of hot flashes” value in series [2] (low dose oral, men and women, short term study (Loprinzi et al. 1994)) is given as “reduce the frequency of hot flashes”.
